Read-outs that look alike come from different tables or passages of the source.
Key:
Ips engraver beetles = assay: Trial 2 single-tree protection study: Ips attack, tree mortality and gallery construction on standing loblolly pine; assay type: in vivo; set-up: Length of Egg Galleries Total: unit not given here; details: for trees with early signs of fading crowns (number of 6 trees): 24 days after initial pheromone deployment; for Length of Egg Galleries Total / Length of Egg Galleries With Brood / Length of Egg Galleries With Brood % of Total / Length of Egg Galleries Without Brood / Length of Egg Galleries Without Brood % of Total / Number of Egg Galleries Total / Number of Egg Galleries With Brood % of Total / Number of Egg Galleries With Brood No. / Number of Egg Galleries Without Brood % of Total / Number of Egg Galleries Without Brood No. / Nuptial Chambers With Egg Galleries % of Total / Nuptial Chambers With Egg Galleries No. / Nuptial Chambers Without Egg Galleries % of Total / Nuptial Chambers Without Egg Galleries No. / Total Nuptial Chambers: logs cut after tree mortality or end of trial; for Mean # of Ips caught/trap / Number of Attacks/0.3 m bole section at 3 m after 24 days: Ips: standing loblolly pine; for Number of Attacks/0.3 m bole section at 3 m after 24 days: Ips: 24 days after pheromone deployment
Method: Study Sites: Two 20-year-old, recently thinned loblolly pine plantations were selected in Texas. Trees in one plantation were injected for use in a bolt study (Trial 1). Trees in ½ acre section of the second plantation were injected as part of a single-tree protection study (Trial 2). A staging area also was set up in the second plantation where bolts from the first plantation were exposed to bark beetles and wood borers.
Population Monitoring: A clear panel of acetate (10 cm wide by 25 cm long) was attached to the center of each bolt after deployment of bolts or 2 m high on standing trees after deployment of pheromone baits to monitor arrival of bark beetles. The top surface of each panel was coated entirely with Stikem Special® trapping compound (Michel and Pelton, Emeryville, Calif.). The traps were left in place for two weeks.
Trial 2: Loblolly pine, 15-20 cm (=6-9 inch) DBH, also were selected in March of the study year in a recently thinned 20-year-old pine stand in east Texas. Each treatment (the same as those used in Trial 1) was injected into four cardinal points about 0.3 m above the ground on each of 6 trees in April (16th-23rd) using the Arborjet Tree IV™ system.
After 5 weeks post-injection (May 28), frills were cut with a hatchet into the sapwood between the injection points near the base of the tree. A cellulose. sponge was inserted into each cut and loaded with I0 ml of a 4:1 mix of sodium N-methyldithiocarbamate (MS) (Woodfume®; Osmose, Inc., Buffalo, N.Y.) plus dimethyl sulfoxide (DMSO) (Aldrich Chemical) (Roton 1987, Strom et al. 2004). […] The intent was to stress the tree and make it susceptible to attack by bark beetles without killing it. Pheromone packets containing racemic ipsdienol+lanerione, ipsenol or cis-verbenol were attached (June 7) atop 3 m stakes evenly spaced in between and around the study trees to encourage attack by the three Ips engraver species. […] The baits were changed every 4 weeks.
Trial 2. […] All visible Ips attacks and cerambycid egg niches were counted within the marked area. The number of trees with fading crowns also was recorded. Thereafter, the trees were evaluated weekly for crown fading. When mortality did occur, the trees were felled and two bolts taken and evaluated for attack success and gallery length as described in Trial 1. […] Treatment efficacy was determined by comparing tree survival, beetle attacks and egg gallery length on treated and untreated bolts. As before, data were transformed and analyzed by GLM and the Fisher's Protected LSD test using the Statview statistical program.

[1] = system: loblolly pine trees, Pinus taeda L.; details: in vivo
Method: Treatment Methods: Trial 1: Loblolly pine trees, Pinus taeda L., 15-20 cm (=6-9 inch) diameter at breast height (DBH), were selected in March of the study year in a 20-year-old pine stand in east Texas (Angelina County). Each treatment was injected into four cardinal points about 0.3 m above the ground on each of 15 trees in April (16th-23rd) using the Arborjet Tree IV™ microinfusion system (Arborjet, Inc. Woburn, Mass.).
At the time of tree felling, a section of lower bole (˜60-80 cm) containing the injection points was taken from each injected tree. The bark was later removed around the injection points to determine if any damage had resulted from the installation of plugs and/or injection of chemicals. If damage was found, the length and width of any ‘lesions’ (discolored areas on the surface of the xylem) were measured.

Cerambycid = assay type: in vivo, cerambycids; details: for Number of Attacks/0.3 m bole section at 3 m after 24 days: Cerambycid: 576 h
Method: After 5 weeks post-injection (May 28), frills were cut with a hatchet into the sapwood between the injection points near the base of the tree. A cellulose. sponge was inserted into each cut and loaded with I0 ml of a 4:1 mix of sodium N-methyldithiocarbamate (MS) (Woodfume®; Osmose, Inc., Buffalo, N.Y.) plus dimethyl sulfoxide (DMSO) (Aldrich Chemical) (Roton 1987, Strom et al. 2004). This method reduces resin to near zero in 1-2 weeks. The intent was to stress the tree and make it susceptible to attack by bark beetles without killing it. Pheromone packets containing racemic ipsdienol+lanerione, ipsenol or cis-verbenol were attached (June 7) atop 3 m stakes evenly spaced in between and around the study trees to encourage attack by the three Ips engraver species. […] Thus, ipsdienol and cis-verbenol pheromone baits were deployed on all stakes on June 17th. The baits were changed every 4 weeks.
Trial 2. Three weeks after pheromone deployment (June 28), each tree was evaluated by marking a 30 cm (1 ft) section of bole at a height of 3 m (10 ft). All visible Ips attacks and cerambycid egg niches were counted within the marked area. The number of trees with fading crowns also was recorded. Thereafter, the trees were evaluated weekly for crown fading. When mortality did occur, the trees were felled and two bolts taken and evaluated for attack success and gallery length as described in Trial 1. All remaining trees were felled 66 days (Aug. 9) after initial pheromone deployment when no additional trees had died for 2 weeks. Treatment efficacy was determined by comparing tree survival, beetle attacks and egg gallery length on treated and untreated bolts. As before, data were transformed and analyzed by GLM and the Fisher's Protected LSD test using the Statview statistical program.

[2] = After 24 days from pheromone bait deployment

N#Cc1nn(-c2c(Cl)cc(C(F)(F)F)cc2Cl)c(N)c1[S+]([O-])C(F)(F)F (centres unmarked) [Fip, 5-amino-3-cyano-1-(2,6-dichloro-4-trifluoromethylphenyl)-4-trifluoromethylsulfinylpyrazole]
trees with early signs of fading crowns (number of 6 trees) (Ips engraver beetles): None
Pct of Trees w/Fading Crowns (Ips engraver beetles; [2]): 0.0 Pct
Pct of Trees w/Fading Crowns (Ips engraver beetles; After 32 days): 0.0 Pct
Pct of Trees w/Fading Crowns (Ips engraver beetles; After 39 days): 0.0 Pct
Pct of Trees w/Fading Crowns (Ips engraver beetles; After 46 days): 0.0 Pct
Pct of Trees w/Fading Crowns (Ips engraver beetles; After 52 days): 0.0 Pct
Pct of Trees w/Fading Crowns (Ips engraver beetles; After 59 days): 0.0 Pct
Pct of Trees w/Fading Crowns (Ips engraver beetles; After 66 days): 0.0 Pct
Length of Egg Galleries Total (Ips engraver beetles; bolt height 3 m): 6.0
Length of Egg Galleries With Brood (Ips engraver beetles; bolt height 3 m): 2.5 cm
Length of Egg Galleries With Brood % of Total (Ips engraver beetles; bolt height 3 m): 41.7%
Length of Egg Galleries Without Brood (Ips engraver beetles; bolt height 3 m): 3.5 cm
Length of Egg Galleries Without Brood % of Total (Ips engraver beetles; bolt height 3 m): 58.3%
Number of Egg Galleries Total (Ips engraver beetles; bolt height 3 m): 1.2
Number of Egg Galleries With Brood % of Total (Ips engraver beetles; bolt height 3 m): 14.3%
Number of Egg Galleries With Brood No. (Ips engraver beetles; bolt height 3 m): 0.2
Number of Egg Galleries Without Brood % of Total (Ips engraver beetles; bolt height 3 m): 85.7%
Number of Egg Galleries Without Brood No. (Ips engraver beetles; bolt height 3 m): 1.0
Nuptial Chambers With Egg Galleries % of Total (Ips engraver beetles; bolt height 3 m): 18.9%
Nuptial Chambers With Egg Galleries No. (Ips engraver beetles; bolt height 3 m): 1.2
Nuptial Chambers Without Egg Galleries % of Total (Ips engraver beetles; bolt height 3 m): 81.1%
Nuptial Chambers Without Egg Galleries No. (Ips engraver beetles; bolt height 3 m): 5.0
Total Nuptial Chambers (Ips engraver beetles; bolt height 3 m): 6.2
Length of Egg Galleries Total (Ips engraver beetles; bolt height 8 m): 22.7
Length of Egg Galleries With Brood (Ips engraver beetles; bolt height 8 m): 2.5 cm
Length of Egg Galleries With Brood % of Total (Ips engraver beetles; bolt height 8 m): 11.0%
Length of Egg Galleries Without Brood (Ips engraver beetles; bolt height 8 m): 20.2 cm
Length of Egg Galleries Without Brood % of Total (Ips engraver beetles; bolt height 8 m): 89.0%
Number of Egg Galleries Total (Ips engraver beetles; bolt height 8 m): 7.7
Number of Egg Galleries With Brood % of Total (Ips engraver beetles; bolt height 8 m): 6.5%
Number of Egg Galleries With Brood No. (Ips engraver beetles; bolt height 8 m): 0.5
Number of Egg Galleries Without Brood % of Total (Ips engraver beetles; bolt height 8 m): 93.5%
Number of Egg Galleries Without Brood No. (Ips engraver beetles; bolt height 8 m): 7.2
Nuptial Chambers With Egg Galleries % of Total (Ips engraver beetles; bolt height 8 m): 66.7%
Nuptial Chambers With Egg Galleries No. (Ips engraver beetles; bolt height 8 m): 3.0
Nuptial Chambers Without Egg Galleries % of Total (Ips engraver beetles; bolt height 8 m): 33.3%
Nuptial Chambers Without Egg Galleries No. (Ips engraver beetles; bolt height 8 m): 1.5
Total Nuptial Chambers (Ips engraver beetles; bolt height 8 m): 4.5
Mean # of Ips caught/trap (Ips engraver beetles): 5.2
Number of Attacks/0.3 m bole section at 3 m after 24 days: Ips (Ips engraver beetles): 1.3
tree survival (Ips engraver beetles; standing trees, end of trial (66 days)): survived
Lesion Length ([1]; 1 month): 4.1 a cm
Lesion Width ([1]; 1 month): 1.5 a cm
Lesion Length ([1]; 3 months): 4.1 a cm
Lesion Width ([1]; 3 months): 1.4 cm
Borer Feeding Area (% of Total Area) (Cerambycid): 0.0 % of Total Area
Number of Attacks/0.3 m bole section at 3 m after 24 days: Cerambycid (Cerambycid): 1.3 a

O=[N+]([O-])NC1=NCCN1Cc1ccc(Cl)nc1 [Imid]
trees with early signs of fading crowns (number of 6 trees) (Ips engraver beetles): 3 of 6
Pct of Trees w/Fading Crowns (Ips engraver beetles; [2]): 50.0 Pct
Pct of Trees w/Fading Crowns (Ips engraver beetles; After 32 days): 83.3 Pct
Pct of Trees w/Fading Crowns (Ips engraver beetles; After 39 days): 83.3 Pct
Pct of Trees w/Fading Crowns (Ips engraver beetles; After 46 days): 83.3 Pct
Pct of Trees w/Fading Crowns (Ips engraver beetles; After 52 days): 100.0 Pct
Pct of Trees w/Fading Crowns (Ips engraver beetles; After 59 days): 100.0 Pct
Pct of Trees w/Fading Crowns (Ips engraver beetles; After 66 days): 100.0 Pct
Length of Egg Galleries Total (Ips engraver beetles; bolt height 3 m): 301.5
Length of Egg Galleries With Brood (Ips engraver beetles; bolt height 3 m): 121.7 cm
Length of Egg Galleries With Brood % of Total (Ips engraver beetles; bolt height 3 m): 40.4%
Length of Egg Galleries Without Brood (Ips engraver beetles; bolt height 3 m): 179.8 cm
Length of Egg Galleries Without Brood % of Total (Ips engraver beetles; bolt height 3 m): 59.6%
Number of Egg Galleries Total (Ips engraver beetles; bolt height 3 m): 38.2
Number of Egg Galleries With Brood % of Total (Ips engraver beetles; bolt height 3 m): 28.8%
Number of Egg Galleries With Brood No. (Ips engraver beetles; bolt height 3 m): 11.0
Number of Egg Galleries Without Brood % of Total (Ips engraver beetles; bolt height 3 m): 71.2%
Number of Egg Galleries Without Brood No. (Ips engraver beetles; bolt height 3 m): 27.2
Nuptial Chambers With Egg Galleries % of Total (Ips engraver beetles; bolt height 3 m): 98.0%
Nuptial Chambers With Egg Galleries No. (Ips engraver beetles; bolt height 3 m): 8.0
Nuptial Chambers Without Egg Galleries % of Total (Ips engraver beetles; bolt height 3 m): 2.0%
Nuptial Chambers Without Egg Galleries No. (Ips engraver beetles; bolt height 3 m): 0.2
Total Nuptial Chambers (Ips engraver beetles; bolt height 3 m): 8.2
Length of Egg Galleries Total (Ips engraver beetles; bolt height 8 m): 217.5
Length of Egg Galleries With Brood (Ips engraver beetles; bolt height 8 m): 115.5 cm
Length of Egg Galleries With Brood % of Total (Ips engraver beetles; bolt height 8 m): 53.1%
Length of Egg Galleries Without Brood (Ips engraver beetles; bolt height 8 m): 102.0 cm
Length of Egg Galleries Without Brood % of Total (Ips engraver beetles; bolt height 8 m): 46.9%
Number of Egg Galleries Total (Ips engraver beetles; bolt height 8 m): 33.2
Number of Egg Galleries With Brood % of Total (Ips engraver beetles; bolt height 8 m): 42.7%
Number of Egg Galleries Without Brood % of Total (Ips engraver beetles; bolt height 8 m): 57.3%
Number of Egg Galleries Without Brood No. (Ips engraver beetles; bolt height 8 m): 19.0
Nuptial Chambers With Egg Galleries % of Total (Ips engraver beetles; bolt height 8 m): 78.7%
Nuptial Chambers With Egg Galleries No. (Ips engraver beetles; bolt height 8 m): 9.8
Nuptial Chambers Without Egg Galleries % of Total (Ips engraver beetles; bolt height 8 m): 21.3%
Nuptial Chambers Without Egg Galleries No. (Ips engraver beetles; bolt height 8 m): 2.7
Total Nuptial Chambers (Ips engraver beetles; bolt height 8 m): 12.5
Mean # of Ips caught/trap (Ips engraver beetles): 8.5
Number of Attacks/0.3 m bole section at 3 m after 24 days: Ips (Ips engraver beetles): 12.7
trees died due to bark beetle attack (Ips engraver beetles; standing trees, after 66 days): 100%
Lesion Length ([1]; 1 month): 7.3 b cm
Lesion Width ([1]; 1 month): 1.7 a cm
Lesion Length ([1]; 3 months): 6.1 a cm
Lesion Width ([1]; 3 months): 1.3 cm
Number of Attacks/0.3 m bole section at 3 m after 24 days: Cerambycid (Cerambycid): 4.7 a

Reference: patent publication US20080039515A1, “Arylpyrazoles And Methods Of Using Same For Control Of Insect Pests That Bore Into Trees” (The Texas A&M University System, priority 2004, published 2008)
